The text below walks through data of US9561228B2 (Celgene Avilomics Research, Inc., priority 2013, dated 2017).

The subject of assay [1] is HT-29 cells (colorectal adenocarcinoma). Description: Inhibition of cancer cell proliferation, HT-29 (CellTiterGlo, 72 hours). To be noted: Homo sapiens. The class given is cell-based. The procedure:
Measurement of Inhibition of Cancer Cell Proliferation (HT-29/Colorectal Adenocarcinoma)
The following protocol used an HT-29 cell line, which cell line is a model for colorectal adenocarcinoma. HT-29 cells were split and 3000 cells in 100 μl of growth medium were added per well of a flat-bottom 96-well plate. A two-fold test compound solution in serum-free RPM1640 was made, starting at 5,000 nM. Then, 3-fold serial dilutions were made across the plate from well 1 to well 11. Well 12, the last well in a row on the plate, was left as untreated control. 100 μl compound solutions were then transferred to the wells, so the total volume of media was 200 μl per well. Plates were returned to a 37° C. incubator, and the cells were cultured for 72 hours. To measure cell proliferation after 72 hours, media was discarded from the plates, 50 μl/well of fresh medium was added, and 50 μl CellTiterGlo solution was added (Promega Cat#G7573). The plate was covered with a dark lid and incubated for 10 min. A white sealing tape was applied to the bottom of the plate, and the plate was read in a luminescence plate reader. […] A 2-fold serial dilution was used to generate 8 cell densities from 50,000-390 cells per well in 50 μl media. 50 μl CellTiterGlo was added per well, and the plate was read in a luminescence plate reader after 10 min. The reading was plotted vs. cell number to generate a standard curve and the equation of the curve fit. The compound-treated sample luminescence readings were converted to cell numbers using the curve-fit equation. The percent of inhibition, using untreated control as 100% growth, was then calculated. GI50 was then calculated by GraphPad Prism.
On the technique in general: In ATP-based viability assays light output follows the ATP content of the culture.

Assay [2] concerns ERK1/2 phosphorylation of p90RSK in HT29 cells. The experiment in a line: pRSK MSD Assay in HT29 cells. The class given is cell-based. The following applies: Homo sapiens, HT-29, read-out: ERK1/ERK2 PRSK MSD HT29 EC50. In short, it runs like this:
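Serum-starved HT29 cells (0.1% FBS overnight) treated with test compound for 120 min at 37° C, then lysed with protease and phosphatase inhibitors. Phospho-p90RSK quantified by MSD sandwich immunoassay: RSK capture antibody, phospho-RSK detection antibody plus Sulfo-tagged antibody, electrochemiluminescence read.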

For another assay, the target named is T1, MEK1 activated ERK1 (Homo sapiens, UniProt P27361).
T1 construct: purchased Millipore (Billerica, Mass.) 14-439-K
Description: Omnia continuous-read kinase assay for potency against MEK1 activated ERK1. The class given is biochemical. The following applies: MEK1 activated ERK1, ATP at KM; read-out: ERK1 Omnia WT ATP KM IC50. In short, it runs like this:
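Apparent IC50 came from initial reaction slopes (RFU vs time) plotted against log inhibitor with a variable-slope fit. Reactions were started with ERK1 (4 nM final) added to 50 μM ATP, roughly at its appKM, and 10 μM Sox-conjugated ST17 peptide in 20 mM Tris pH 7.5, 5 mM MgCl2. Fluorescence was monitored every 71 seconds.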

Each structure is given as a SMILES string.

T1 sequence (P27361 whole entry): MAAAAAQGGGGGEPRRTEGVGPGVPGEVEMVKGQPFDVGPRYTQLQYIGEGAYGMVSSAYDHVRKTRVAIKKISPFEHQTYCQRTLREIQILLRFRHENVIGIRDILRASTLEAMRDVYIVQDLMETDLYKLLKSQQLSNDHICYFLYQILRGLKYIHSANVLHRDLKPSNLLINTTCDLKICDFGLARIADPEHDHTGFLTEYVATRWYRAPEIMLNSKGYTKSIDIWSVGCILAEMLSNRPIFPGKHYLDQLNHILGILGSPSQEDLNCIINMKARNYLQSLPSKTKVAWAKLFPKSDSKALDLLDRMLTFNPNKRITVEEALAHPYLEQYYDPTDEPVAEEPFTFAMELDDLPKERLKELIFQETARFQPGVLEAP

On to `CCOCCC(=O)Nc1ccccc1Nc1nc(Nc2cc(C(N)=O)ccc2C)ncc1Cl` [Compound I-130], for which the GI50 (usually the concentration giving 50% growth inhibition) in assay [1] was over 1000 nM.

As to `C=CC(=O)Nc1ccccc1Nc1nc(NC2CCN(S(C)(=O)=O)CC2)ncc1C(F)(F)F` [Compound I-13, N-(2-((2-((1-(methylsulfonyl)piperidin-4-yl)amino)-5-(trifluoromethyl)pyrimidin-4-yl)amino)phenyl)acrylamide], in assay [2], the EC50 lay in the range of 101 to 500 nM. The compound also had a GI50 in assay [1] of 101 to 500 nM.

Consider `C=CC(=O)Nc1ccccc1Nc1nc(Nc2cc(C(=O)NOC)ccc2C)ncc1C(F)(F)F` [Compound I-69, 3-((4-((2-Acrylamidophenyl)amino)-5-(trifluoromethyl)pyrimidin-2-yl)amino)-N-methoxy-4-methylbenzamide], for which, in assay [2], the EC50 lay within 101 to 500 nM. The GI50 in assay [1] was under 100 nM.

With `C=CC(=O)Nc1ccccc1Nc1nc(Nc2cc(C(N)=O)ccc2C#N)ncc1C(F)(F)F` [Compound I-71, 3-((4-((2-Acrylamidophenyl)amino)-5-(trifluoromethyl)pyrimidin-2-yl)amino)-4-cyanobenzamide], the EC50 in assay [2] is under 100 nM. In assay [1], this compound displayed a GI50 of 101 to 500 nM.

Take `C=CC(=O)N[C@@H]1CCCC[C@H]1Nc1nc(Nc2cc(C(=O)NOC)ccc2C)ncc1Cl` [Compound I-190, 3-((4-(((1R,2R)-2-acrylamidocyclohexyl)amino)-5-chloropyrimidin-2-yl)amino)-N-methoxy-4-methylbenzamide]: in assay [1], the GI50 was over 1000 nM.

`C=CC(=O)Nc1ccccc1Oc1nc(Nc2ccc(N3CCN(C(C)=O)CC3)cc2OC)ncc1C(N)=O` [Compound I-258, 2-((4-(4-acetylpiperazin-1-yl)-2-methoxyphenyl)amino)-4-(2-acrylamidophenoxyl)pyrimidine-5-carboxamide] displayed a 50% growth inhibitory concentration (GI50) in assay [1] of over 1000 nM.

In the case of `C/C=C/C(=O)Nc1cc(F)ccc1Nc1nc(N[C@@H]2CCC[C@H](C(N)=O)C2)ncc1C(F)(F)F` (racemic) [Compound I-6, Rac-(E)-3-((4-((2-(but-2-enamido)-4-fluorophenyl)amino)-5-(trifluoromethyl)pyrimidin-2-yl)amino)-cis-cyclohexanecarboxamide], the EC50 in assay [2] is over 1000 nM. The IC50 (commonly the point on the concentration scale where inhibition reaches its midpoint) on MEK1 activated ERK1 is over 1000 nM.

Regarding `C=CC(=O)Nc1ccccc1Nc1nc(Nc2ccc(F)cc2OC)ncc1Cl` [Compound I-210, N-(2-((5-chloro-2-((4-fluoro-2-methoxyphenyl)amino)pyrimidin-4-yl)amino)phenyl)acrylamide], the EC50 in assay [2] lay within 101 to 500 nM. At MEK1 activated ERK1, the IC50 fell in the range of 101 to 500 nM.

As to `C=CC(=O)Nc1ccccc1Nc1nc(NC2CCN(C=O)CC2)ncc1Cl` [Compound I-124, N-(2-((5-chloro-2-((1-formylpiperidin-4-yl)amino)pyrimidin-4-yl)amino)phenyl)acrylamide], the EC50 in assay [2] is under 100 nM. In assay [1], this compound came in with a GI50 of 101 to 500 nM.

With `C=CC(=O)Nc1cc(F)ccc1Nc1nc(Nc2cc(C(N)=O)ccc2OC)ncc1Cl` [Compound I-208], the EC50 in assay [2] was under 100 nM. The GI50 in assay [1] lay within 101 to 500 nM.

For the compound `C=CC(=O)N[C@H]1CCCC[C@@H]1Nc1nc(N[C@H]2CCCN(C(=O)CO)C2)ncc1Cl` (racemic) [Compound I-141, Rac-N-(2-((5-chloro-2-(((R)-1-(2-hydroxyacetyl)piperidin-3-yl)amino)pyrimidin-4-yl)amino)-trans-cyclohexyl)acrylamide], the EC50 in assay [2] is 501 to 999 nM. The IC50 on MEK1 activated ERK1 lay within 101 to 500 nM.

Consider `C=CC(=O)Nc1ccccc1Nc1nc(NC(C)(C)C)ncc1C(F)(F)F` [Compound I-82, N-(2-((2-(tert-Butylamino)-5-(trifluoromethyl)pyrimidin-4-yl)amino)phenyl)acrylamide], for which the EC50 in assay [2] was over 1000 nM. Moreover, the 50% inhibitory concentration (IC50) at MEK1 activated ERK1 was 501 to 999 nM.

Regarding `C=CC(=O)Nc1ccccc1Nc1nc(N[C@H]2CCCN(C(=O)C(C)(C)O)C2)ncc1Cl` [Compound I-135, (S)—N-(2-((5-chloro-2-((1-(2-hydroxy-2-methylpropanoyl)piperidin-3-yl)amino)pyrimidin-4-yl)amino)phenyl)acrylamide], in assay [2], the EC50 was over 1000 nM. For the same compound, the IC50 on MEK1 activated ERK1 lay in the range of 101 to 500 nM.

Consider `C=CC(=O)Nc1ccccc1Nc1nc(Nc2cc(C(=O)NOC)ccc2C#N)ncc1Cl` [Compound I-195, 3-((4-((2-acrylamidophenyl)amino)-5-chloropyrimidin-2-yl)amino)-4-cyano-N-methoxybenzamide], for which the EC50 in assay [2] is over 1000 nM. Moreover, on MEK1 activated ERK1, the IC50 was in the range of 101 to 500 nM.

With `C=C(C)S(=O)(=O)Nc1cc(F)ccc1Nc1nc(Nc2cc(C(C)=O)ccc2C)ncc1C(F)(F)F` [Compound I-99, N-(2-((2-((5-acetyl-2-methylphenyl)amino)-5-(trifluoromethyl)pyrimidin-4-yl)amino)-5-fluorophenyl)prop-1-ene-2-sulfonamide], the EC50 in assay [2] was over 1000 nM. The concentration for half-maximal inhibition (IC50) on MEK1 activated ERK1 was in the range of 501 to 999 nM.

Take `C=CC(=O)Nc1ccccc1Nc1nc(Nc2cc(C(=O)NOCCO)ccc2OC)ncc1Cl` [Compound I-194, 3-((4-((2-acrylamidophenyl)amino)-5-chloropyrimidin-2-yl)amino)-N-(2-hydroxyethoxy)-4-methoxybenzamide]: the EC50 in assay [2] lay within 501 to 999 nM. In addition, on MEK1 activated ERK1, the IC50 fell in the range of 101 to 500 nM.

For `O=C(CCl)Nc1ccccc1Nc1nc(N[C@H]2CCCN(C(=O)CCl)C2)ncc1C(F)(F)F` [Compound I-31, (S)-2-Chloro-N-(2-((2-((1-(2-chloroacetyl)piperidin-3-yl)amino)-5-(trifluoromethyl)pyrimidin-4-yl)amino)phenyl)acetamide], in assay [2], the EC50 was over 1000 nM. On MEK1 activated ERK1, the IC50 was in the range of 501 to 999 nM.

In the case of `C=CC(=O)N(C)c1ccccc1Nc1nc(N[C@@H]2CCC[C@H](C(=O)NOC)C2)ncc1Cl` (racemic) [Compound I-106, Rac-cis-3-((5-chloro-4-((2-(N-methylacrylamido)phenyl)amino)pyrimidin-2-yl)amino)-N-methoxycyclohexanecarboxamide], the EC50 in assay [2] is over 1000 nM. Also, the IC50 at MEK1 activated ERK1 was over 1000 nM.

As for `C=CC(=O)Nc1ccccc1Nc1nc(Nc2cc(C(N)=O)ccn2)ncc1C(F)(F)F` [Compound I-83, 2-((4-((2-Acrylamidophenyl)amino)-5-(trifluoromethyl)pyrimidin-2-yl)amino)isonicotinamide], in assay [2], the EC50 was in the range of 101 to 500 nM. The half-maximal inhibitory concentration (IC50) at MEK1 activated ERK1 is 101 to 500 nM.

For `CC(=O)N1CCC[C@H](Nc2ncc(C(F)(F)F)c(NC3C4C=CC(C4)C3C(=O)NC#N)n2)C1` (mixture of isomers) [Compound I-25, Rac-3-((2-(((S)-1-acetylpiperidin-3-yl)amino)-5-(trifluoromethyl)pyrimidin-4-yl)-cis-amino)-N-cyanobicyclo[2.2.1]hept-5-ene-2-carboxamide], the EC50 in assay [2] was over 1000 nM. Also, the IC50 at MEK1 activated ERK1 was over 1000 nM.

With `C=CC(=O)Nc1cc(F)ccc1Nc1nc(Nc2cc(C(N)=O)ccc2C#N)ncc1Cl` [Compound I-207, 3-(4-(2-acrylamido-4-fluorophenylamino)-5-chloropyrimidin-2-ylamino)-4-cyanobenzamide], the EC50 in assay [2] is over 1000 nM. The IC50 on MEK1 activated ERK1 fell in the range of 101 to 500 nM.

Regarding `C=CC(=O)Nc1cc(C)ccc1Nc1nc(Nc2ccnc(Cl)c2)ncc1Cl` [Compound I-230, N-(2-((5-chloro-2-((2-chloropyridin-4-yl)amino)pyrimidin-4-yl)amino)-5-methylphenyl)acrylamide], the EC50 in assay [2] fell in the range of 101 to 500 nM. At MEK1 activated ERK1, the IC50 was 501 to 999 nM.

As for `C=CC(=O)Nc1ccccc1Nc1nc(Nc2cc(C(N)=O)c(OCCCNC(=O)C#CC)cc2C)ncc1Cl` [Compound I-305, 5-((4-((2-acrylamidophenyl)amino)-5-chloropyrimidin-2-yl)amino)-2-(3-(but-2-ynamido)propoxy)-4-methylbenzamide], the EC50 in assay [2] is over 1000 nM. Besides, at MEK1 activated ERK1, the IC50 was in the range of 101 to 500 nM.

With `C=CC(=O)Nc1ccccc1Nc1nc(Nc2cc(C(=O)O)ccc2C)ncc1Cl` [Compound I-225, 3-((4-((2-acrylamidophenyl)amino)-5-chloropyrimidin-2-yl)amino)-4-methylbenzoic acid], the EC50 in assay [2] is over 1000 nM. Also, the IC50 at MEK1 activated ERK1 is 101 to 500 nM.

As to `C=CC(=O)N[C@@H]1CCCC[C@H]1Nc1nc(Nc2cc(C(=O)NOC)ccc2C)ncc1Cl` (racemic) [Compound I-188, Rac-trans-3-((4-((2-acrylamidocyclohexyl)amino)-5-chloropyrimidin-2-yl)amino)-N-methoxy-4-methylbenzamide], the EC50 in assay [2] is over 1000 nM. In addition, on MEK1 activated ERK1, the half-inhibitory concentration (IC50) is over 1000 nM.
